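Cultured in 96-well plates, cells were exposed to test compound for 48 hours across five concentrations. TGI: concentration producing complete growth inhibition.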
Assays:
Experiment in all cases: inhibition of tumour cell growth, NCI panel, 48 h
[1] = test system: 786-0 renal
[2] = test system: A498 renal
[3] = test system: A549 NSCLC
[4] = test system: ACHN renal
[5] = test system: BT-549 breast
[6] = test system: CAKI-1 renal
[7] = test system: CCRF-CEM leukemia
[8] = test system: COLO 205 colon
[9] = test system: DU-145 prostate
[10] = test system: EKVX NSCLC
[11] = test system: HCC-2998 colon
[12] = test system: HCT-116 colon
[13] = test system: HCT-15 colon
[14] = test system: HL-60(TB) leukemia
[15] = test system: HOP-62 NSCLC
[16] = test system: HOP-92 NSCLC
[17] = test system: HT29 colon
[18] = test system: IGROV1 ovarian
[19] = test system: K-562 leukemia
[20] = test system: KM12 colon
[21] = test system: LOX IMVI melanoma
[22] = test system: M14 melanoma
[23] = test system: MALME-3M melanoma
[24] = test system: MCF7 breast
[25] = test system: MDA-MB-231 breast
[26] = test system: MDA-MB-435
[27] = test system: MDA-N
[28] = test system: MOLT-4 leukemia
[29] = test system: NCI-H226 lung
[30] = test system: NCI-H23 lung
[31] = test system: NCI-H460 lung
[32] = test system: NCI-H522 lung
[33] = test system: NCI/ADR-RES ovarian
[34] = test system: OVCAR-3 ovarian
[35] = test system: OVCAR-4 ovarian
[36] = test system: OVCAR-5 ovarian
[37] = test system: OVCAR-8 ovarian
[38] = test system: PC-3 prostate
[39] = test system: RPMI-8226 leukemia
[40] = test system: RXF 393 renal
[41] = test system: SF-295 CNS
[42] = test system: SF-539 CNS
[43] = test system: SK-MEL-2 melanoma
[44] = test system: SK-MEL-28 melanoma
[45] = test system: SK-MEL-5 melanoma
[46] = test system: SK-OV-3 ovarian
[47] = test system: SN12C renal
[48] = test system: SNB-19 CNS
[49] = test system: SNB-75 CNS
[50] = test system: SR leukemia
[51] = test system: SW-620 colon
[52] = test system: T-47D breast
[53] = test system: TK-10 renal
[54] = test system: U251 CNS
[55] = test system: UACC-257 melanoma
[56] = test system: UACC-62 melanoma
[57] = test system: UO-31 renal
[58] = test system: HS 578T breast
[59] = test system: SF-268 CNS

Cn1c(-c2ccco2)ccc1-c1ccc(C=O)o1
TGI [1]: > 100 µM | TGI [2]: > 100 µM | TGI [3]: > 100 µM | TGI [4]: > 100 µM | TGI [5]: > 100 µM | TGI [6]: 55.2 µM | TGI [7]: > 100 µM | TGI [8]: > 100 µM | TGI [9]: > 100 µM | TGI [10]: > 100 µM | TGI [11]: > 100 µM | TGI [12]: 53.1 µM | TGI [13]: > 100 µM | TGI [14]: 52.2 µM | TGI [15]: > 100 µM | TGI [16]: > 100 µM | TGI [17]: > 100 µM | TGI [18]: > 100 µM | TGI [19]: > 100 µM | TGI [20]: > 100 µM | TGI [21]: > 100 µM | TGI [22]: > 100 µM | TGI [23]: > 100 µM | TGI [24]: > 100 µM | TGI [25]: > 100 µM | TGI [26]: > 100 µM | TGI [27]: > 100 µM | TGI [28]: 74.6 µM | TGI [29]: > 100 µM | TGI [30]: > 100 µM | TGI [31]: > 100 µM | TGI [32]: > 100 µM | TGI [33]: > 100 µM | TGI [34]: > 100 µM | TGI [35]: > 100 µM | TGI [36]: > 100 µM | TGI [37]: > 100 µM | TGI [38]: > 100 µM | TGI [39]: > 100 µM | TGI [40]: > 100 µM | TGI [41]: > 100 µM | TGI [42]: 48.8 µM | TGI [43]: > 100 µM | TGI [44]: > 100 µM | TGI [45]: > 100 µM | TGI [46]: > 100 µM | TGI [47]: > 100 µM | TGI [48]: > 100 µM | TGI [49]: > 100 µM | TGI [50]: > 100 µM | TGI [51]: > 100 µM | TGI [52]: > 100 µM | TGI [53]: > 100 µM | TGI [54]: > 100 µM | TGI [55]: > 100 µM | TGI [56]: > 100 µM | TGI [57]: > 100 µM

CC(C)(C)C1=C(Br)C(F)(C(C)(C)C)OP1(=O)c1ccccc1 (configuration not stated)
TGI [1]: 29.6 µM | TGI [2]: 40 µM | TGI [3]: 36.3 µM | TGI [4]: 30 µM | TGI [6]: 25.8 µM | TGI [8]: 29.4 µM | TGI [9]: 32 µM | TGI [10]: 33.6 µM | TGI [11]: 28.4 µM | TGI [12]: 31.8 µM | TGI [13]: 36.9 µM | TGI [14]: 16.2 µM | TGI [15]: 30 µM | TGI [16]: 34.2 µM | TGI [58]: 53.8 µM | TGI [17]: 35 µM | TGI [18]: 29.7 µM | TGI [19]: 22.9 µM | TGI [20]: 33.7 µM | TGI [21]: 36.4 µM | TGI [22]: 28.5 µM | TGI [23]: 32 µM | TGI [24]: 30 µM | TGI [26]: 29.9 µM | TGI [27]: 34.7 µM | TGI [29]: 31 µM | TGI [30]: 37.9 µM | TGI [31]: 35.6 µM | TGI [32]: 30.8 µM | TGI [33]: 30.8 µM | TGI [34]: 28.8 µM | TGI [35]: 23 µM | TGI [36]: 36.6 µM | TGI [37]: 36.4 µM | TGI [38]: 32 µM | TGI [40]: 24.5 µM | TGI [59]: 36.2 µM | TGI [41]: 37 µM | TGI [42]: 33.2 µM | TGI [43]: 36.5 µM | TGI [44]: 34.1 µM | TGI [45]: 22.9 µM | TGI [46]: 32.2 µM | TGI [47]: 29.5 µM | TGI [48]: 30.6 µM | TGI [49]: 30.9 µM | TGI [50]: 31.4 µM | TGI [51]: 32.3 µM | TGI [52]: 42.1 µM | TGI [53]: 33.1 µM | TGI [54]: 31.3 µM | TGI [55]: 30.9 µM | TGI [56]: 29.3 µM | TGI [57]: 59.4 µM

COc1ccc2c(c1)c1c3c(ccc4ncn2c43)N(CCO)CCN=1
TGI [1]: 1.06 µM | TGI [2]: 0.382 µM | TGI [3]: 2.22 µM | TGI [4]: 0.543 µM | TGI [6]: 2.51 µM | TGI [7]: 0.305 µM | TGI [8]: 0.158 µM | TGI [9]: 1.59 µM | TGI [10]: 1.08 µM | TGI [11]: 0.369 µM | TGI [12]: 0.214 µM | TGI [13]: 0.611 µM | TGI [14]: 0.407 µM | TGI [15]: 0.476 µM | TGI [16]: 5.2 µM | TGI [58]: 0.605 µM | TGI [17]: 0.898 µM | TGI [18]: 5.53 µM | TGI [19]: 0.228 µM | TGI [20]: 1.22 µM | TGI [21]: 0.468 µM | TGI [22]: 0.772 µM | TGI [23]: 0.43 µM | TGI [24]: 0.944 µM | TGI [25]: 0.511 µM | TGI [26]: 0.834 µM | TGI [27]: 0.808 µM | TGI [28]: 0.656 µM | TGI [29]: 0.522 µM | TGI [30]: 0.466 µM | TGI [31]: 0.484 µM | TGI [32]: 0.277 µM | TGI [33]: 1.76 µM | TGI [34]: 0.648 µM | TGI [35]: 0.915 µM | TGI [36]: 0.715 µM | TGI [37]: 1.72 µM | TGI [38]: 0.464 µM | TGI [39]: 2.56 µM | TGI [40]: 0.473 µM | TGI [59]: 1.86 µM | TGI [41]: 0.831 µM | TGI [42]: 0.347 µM | TGI [43]: 0.359 µM | TGI [44]: 0.941 µM | TGI [45]: 0.403 µM | TGI [46]: 2.03 µM | TGI [47]: 0.519 µM | TGI [48]: 1.46 µM | TGI [49]: 1.19 µM | TGI [50]: 0.207 µM | TGI [51]: 3.64 µM | TGI [52]: 1.42 µM | TGI [53]: 2.23 µM | TGI [54]: 1.09 µM | TGI [55]: 1.39 µM | TGI [56]: 0.602 µM | TGI [57]: 0.255 µM

O=C1c2ccccc2C(=O)N1CCc1ncc(-c2ccccc2)[nH]1
TGI [1]: > 100 µM | TGI [2]: > 100 µM | TGI [3]: > 100 µM | TGI [4]: > 100 µM | TGI [5]: > 100 µM | TGI [6]: > 100 µM | TGI [7]: > 100 µM | TGI [8]: > 100 µM | TGI [9]: > 100 µM | TGI [10]: > 100 µM | TGI [11]: > 100 µM | TGI [12]: > 100 µM | TGI [13]: > 100 µM | TGI [14]: > 100 µM | TGI [15]: > 100 µM | TGI [58]: > 100 µM | TGI [17]: > 100 µM | TGI [18]: > 100 µM | TGI [19]: > 100 µM | TGI [20]: > 100 µM | TGI [22]: > 100 µM | TGI [23]: > 100 µM | TGI [24]: > 100 µM | TGI [25]: > 100 µM | TGI [27]: > 100 µM | TGI [28]: > 100 µM | TGI [29]: > 100 µM | TGI [30]: > 100 µM | TGI [31]: > 100 µM | TGI [32]: > 100 µM | TGI [33]: > 100 µM | TGI [34]: > 100 µM | TGI [35]: > 100 µM | TGI [36]: > 100 µM | TGI [37]: > 100 µM | TGI [38]: > 100 µM | TGI [59]: > 100 µM | TGI [41]: > 100 µM | TGI [42]: > 100 µM | TGI [43]: > 100 µM | TGI [44]: > 100 µM | TGI [45]: > 100 µM | TGI [46]: > 100 µM | TGI [47]: > 100 µM | TGI [48]: > 100 µM | TGI [49]: > 100 µM | TGI [50]: > 100 µM | TGI [51]: > 100 µM | TGI [53]: > 100 µM | TGI [54]: > 100 µM | TGI [55]: > 100 µM | TGI [56]: > 100 µM | TGI [57]: > 100 µM

— PubChem BioAssay (NCI)
